According to patent publication US20050031557A1, “Oral administration of beta-carotene, lycopene and lutein for human skin protection” (priority 1999, published 2005):

System: healthy skin of light type II
Experiment: Photoprotection study in volunteers with oral carotinoid supplementation over 12 weeks
Format: in vivo, human
Description: The carotinoid absorption and photoprotection studies were carried out using a panel of 36 volunteers with healthy skin of light type II (Fitzpatrick & Pathak test). The starting values for each volunteer were determined at the beginning of the 12-week study. An interim study was conducted after 6 weeks and the final study after 12 weeks. The volunteers were divided into three groups of twelve who received the following daily doses: • 1st group: 25 mg Betatene® (corresponds to 24 mg β-carotene) • 2nd group: 8.3 mg Betatene® (corresponds to 8 mg β-carotene), 8 mg lycopene, 8 mg lutein (Xangold®) • 3rd group: placebo capsules.
The carotinoids were administered in soft gelatine capsules with 140 mg soybean oil.
The concentration of β-carotene, lycopene and lutein in the skin was determined by reflection spectrometry which was carried out on an area of 1 cm^2 of the forehead, the back of the hand, the palm of the hand, the inside of the lower arm and the back. The change in color of the skin during supplementation was differentiated by a Minolta chromameter (L, a, b system) into reddening of the skin (a values), yellow component (b values) and lightness of the skin (L values). The concentration of β-carotene, lycopene and lutein in the serum was determined by high-pressure liquid chromatography (HPLC). […]

In the case of `CC1=C(/C=C/C(C)=C/C=C/C(C)=C/C=C/C=C(C)/C=C/C=C(C)/C=C/C2=C(C)CCCC2(C)C)C(C)(C)CCC1` [β-carotene], the “photoprotection of the skin in relation to the blank value (in words)” value (12 weeks of daily oral dosing, versus placebo group 3) is reported as “doubles the photoprotection of the skin” and the Photoprotection (average of 12 volunteers per group after 12 weeks of daily oral dosing in soft gelatine capsules with soybean oil, relative to blank value (group 3, no carotinoids = 100), group 1: 24 mg β-carotene, group 2: 8 mg each of β-carotene, lycopene, lutein) is reported as 200 %-rel.
